Values joined by “and” are separate entries in the source; they are usually repeats but may differ in a detail not shown here. Equal entries are not always repeated. Inconclusive results and toxic doses are left out. Cut-off read from the data, not from the text of the source: active = T/C of 150% or more; inactive = T/C below 125%.
System: L1210 leukemia ip in BDF1 mice, survival T/C
Test: NCI In Vivo Anticancer Drug Screen. Data for tumor model L1210 Leukemia (intraperitoneal) in B6D2F1 (BDF1) mice
Conditions: endpoint: mean survival time, higher = longer survival
How it was run: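 Transplantable tumor model; survival measured in treated vs vehicle control mice. Value = treated/control.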

[1] = dose: 100.0 mg/kg/injection, schedule: Q01DX009 (ip), vehicle: saline
[2] = dose: 100.0 mg/kg/injection, schedule: Q04DX003 (ip), vehicle: saline
[3] = dose: 200.0 mg/kg/injection, schedule: Q01DX009 (ip), vehicle: saline
[4] = dose: 200.0 mg/kg/injection, schedule: Q04DX003 (ip), vehicle: saline
[5] = dose: 400.0 mg/kg/injection, schedule: Q04DX003 (ip), vehicle: saline
[6] = dose: 100.0 mg/kg/injection, schedule: Q01DX001 (ip), vehicle: Klucel (hydroxypropylcellulose) (HPC)
[7] = dose: 200.0 mg/kg/injection, schedule: Q01DX001 (ip), vehicle: Klucel (hydroxypropylcellulose) (HPC)
[8] = dose: 400.0 mg/kg/injection, schedule: Q01DX001 (ip), vehicle: Klucel (hydroxypropylcellulose) (HPC)
[9] = dose: 100.0 mg/kg/injection, schedule: Q01DX009 (ip), vehicle: Klucel (hydroxypropylcellulose) (HPC)
[10] = dose: 200.0 mg/kg/injection, schedule: Q01DX009 (ip), vehicle: Klucel (hydroxypropylcellulose) (HPC)
[11] = dose: 100.0 mg/kg/injection, schedule: Q04DX003 (ip), vehicle: Klucel (hydroxypropylcellulose) (HPC)
[12] = dose: 200.0 mg/kg/injection, schedule: Q04DX003 (ip), vehicle: Klucel (hydroxypropylcellulose) (HPC)
[13] = dose: 100.0 mg/kg/injection, schedule: Q01DX001 (ip), vehicle: carboxymethylcellulose (CMC)
[14] = dose: 200.0 mg/kg/injection, schedule: Q01DX001 (ip), vehicle: carboxymethylcellulose (CMC)
[15] = dose: 400.0 mg/kg/injection, schedule: Q01DX001 (ip), vehicle: carboxymethylcellulose (CMC)
[16] = dose: 25.0 mg/kg/injection, schedule: Q04DX002 (ip), vehicle: Klucel (hydroxypropylcellulose) (HPC)
[17] = dose: 50.0 mg/kg/injection, schedule: Q04DX002 (ip), vehicle: Klucel (hydroxypropylcellulose) (HPC)
[18] = dose: 100.0 mg/kg/injection, schedule: Q04DX002 (ip), vehicle: Klucel (hydroxypropylcellulose) (HPC)
[19] = dose: 100.0 mg/kg/injection, schedule: Q04DX003 (ip), vehicle: saline with Tween-80
[20] = dose: 200.0 mg/kg/injection, schedule: Q04DX003 (ip), vehicle: saline with Tween-80
[21] = dose: 400.0 mg/kg/injection, schedule: Q04DX003 (ip), vehicle: saline with Tween-80

Measured: T/C

COC(=O)CC(O)C(=O)OC (stereo unspecified)
inactive: [1] 102 % of control | [2] 109 % of control | [3] 93 % of control | [4] 104 % of control | dose: 400.0 mg/kg/injection, schedule: Q01DX009 (ip), vehicle: saline 96 % of control | [5] 110 % of control

CN(C)c1ccc(-c2cc(NS(=O)(=O)c3ccccc3)ccc2NS(=O)(=O)c2ccccc2)cc1
inactive: [6] 96 % of control | [7] 94 % of control | [8] 96 % of control

Nc1ncnc2nc(-c3cccc([N+](=O)[O-])c3)[nH]c12
inactive: dose: 50.0 mg/kg/injection, schedule: Q01DX001 (ip), vehicle: Klucel (hydroxypropylcellulose) (HPC) 100 % of control | [6] 91 % of control | [7] 88 % of control

O=[N+]([O-])c1ccc(Cc2ccccn2)cc1
inactive: [6] 104 % of control | [9] 95 % of control | [7] 108 % of control | [10] 101 % of control | [8] 112 % of control

NC(=S)N/N=C/c1[nH]c(=O)[nH]c(=O)c1Br
inactive: dose: 100.0 mg/kg/injection, schedule: Q01DX001 (ip), vehicle: saline with Tween-80 93 % of control | dose: 200.0 mg/kg/injection, schedule: Q01DX001 (ip), vehicle: saline with Tween-80 97 % of control | dose: 400.0 mg/kg/injection, schedule: Q01DX001 (ip), vehicle: saline with Tween-80 103 % of control

O=C1OC(=O)C2C=CC=CC12 (stereo unspecified)
inactive: dose: 100.0 mg/kg/injection, schedule: Q04DX002 (ip), vehicle: saline with Tween-80 92 % of control | dose: 200.0 mg/kg/injection, schedule: Q04DX002 (ip), vehicle: saline with Tween-80 103 % of control | dose: 400.0 mg/kg/injection, schedule: Q04DX002 (ip), vehicle: saline with Tween-80 95 % of control

Cc1cc(Cc2cccc[n+]2[O-])c2ccccc2n1
inactive: [11] 102 % of control | [12] 96 % of control

O=C(CCl)Nc1ccc(C(=O)O)cc1
inactive: dose: 3.0 mg/kg/injection, schedule: Q01DX Z (ip), vehicle: carboxymethylcellulose (CMC) 96 % of control | dose: 7.0 mg/kg/injection, schedule: Q01DX Z (ip), vehicle: carboxymethylcellulose (CMC) 102 % of control | dose: 15.0 mg/kg/injection, schedule: Q01DX Z (ip), vehicle: carboxymethylcellulose (CMC) 88 % of control | dose: 30.0 mg/kg/injection, schedule: Q01DX Z (ip), vehicle: carboxymethylcellulose (CMC) 104 % of control

O=C1CCC(=O)C12CCNCC2
inactive: [1] 97 % of control | [2] 100 % of control | [3] 104 % of control | [4] 88 % of control | [5] 107 % of control

C[n+]1c(/C=C/c2c[nH]c3ccccc23)ccc2ccccc21
inactive: dose: 5.0 mg/kg/injection, schedule: Q01DX001 (ip), vehicle: acetone 101 % of control | dose: 10.0 mg/kg/injection, schedule: Q01DX001 (ip), vehicle: acetone 102 % of control | dose: 20.0 mg/kg/injection, schedule: Q01DX001 (ip), vehicle: acetone 96 % of control | dose: 40.0 mg/kg/injection, schedule: Q01DX001 (ip), vehicle: acetone 107 % of control | dose: 80.0 mg/kg/injection, schedule: Q01DX001 (ip), vehicle: acetone 100 % of control

CC1(C)OCC(C2OC3OC(C)(C)OC3C2OS(C)(=O)=O)O1 (stereo unspecified)
inactive: [13] 101 % of control | [14] 103 % of control | [15] 97 % of control

C/C(=N/Nc1ccc([N+](=O)[O-])cc1[N+](=O)[O-])C(C)(C)C
inactive: [16] 87 % of control | [17] 93 % of control | [18] 101 % of control and 90 % of control | dose: 200.0 mg/kg/injection, schedule: Q04DX002 (ip), vehicle: Klucel (hydroxypropylcellulose) (HPC) 97 % of control | dose: 400.0 mg/kg/injection, schedule: Q04DX002 (ip), vehicle: Klucel (hydroxypropylcellulose) (HPC) 93 % of control

FC(F)(F)c1cccc(NC(=S)N2CCOCC2)c1
inactive: [9] 98 % of control | [10] 104 % of control | dose: 400.0 mg/kg/injection, schedule: Q01DX009 (ip), vehicle: Klucel (hydroxypropylcellulose) (HPC) 96 % of control

OC(CC(O)(C(F)(F)F)C(F)(F)F)c1cccc(C(F)(F)F)c1 (stereo unspecified)
inactive: dose: 100.0 mg/kg/injection, schedule: Q01DX009 (ip), vehicle: other 96 % of control | dose: 100.0 mg/kg/injection, schedule: Q04DX003 (ip), vehicle: other 101 % of control | dose: 200.0 mg/kg/injection, schedule: Q01DX009 (ip), vehicle: other 96 % of control | dose: 400.0 mg/kg/injection, schedule: Q01DX009 (ip), vehicle: other 96 % of control | dose: 400.0 mg/kg/injection, schedule: Q04DX003 (ip), vehicle: other 92 % of control

O=Cc1cccn1-c1cccc2c(-n3cccc3C=O)cccc12
inactive: [16] 97 % of control | [17] 93 % of control | [18] 97 % of control

O=C(Nc1cccc2ccccc12)OCCF
inactive: dose: 5.0 mg/kg/injection, schedule: Q01DX001 (ip), vehicle: carboxymethylcellulose (CMC) 101 % of control | dose: 10.0 mg/kg/injection, schedule: Q01DX001 (ip), vehicle: carboxymethylcellulose (CMC) 106 % of control | dose: 20.0 mg/kg/injection, schedule: Q01DX001 (ip), vehicle: carboxymethylcellulose (CMC) 104 % of control | dose: 40.0 mg/kg/injection, schedule: Q01DX001 (ip), vehicle: carboxymethylcellulose (CMC) 104 % of control | dose: 80.0 mg/kg/injection, schedule: Q01DX001 (ip), vehicle: carboxymethylcellulose (CMC) 106 % of control

CC(C)(C)C(=O)CC(=O)C(C)(C)C.CC(C)(C)C(=O)CC(=O)C(C)(C)C.CC(C)(C)C(=O)CC(=O)C(C)(C)C.[Er]
inactive: [19] 100 % of control | [20] 97 % of control | [21] 94 % of control

CC1(C)N=C(c2ccccc2)C2C(c3ccc([N+](=O)[O-])cc3)N21 (stereo unspecified)
inactive: dose: 50.0 mg/kg/injection, schedule: Q01DX001 (ip), vehicle: carboxymethylcellulose (CMC) 98 % of control | [13] 88 % of control | [14] 93 % of control | [15] 91 % of control

COc1ccc(OC(=O)Nc2cc(C)ccc2C)cc1
inactive: [9] 91 % of control | [11] 94 % of control | [10] 90 % of control | [12] 97 % of control | dose: 400.0 mg/kg/injection, schedule: Q04DX003 (ip), vehicle: Klucel (hydroxypropylcellulose) (HPC) 108 % of control

C/C(=C\c1ccc2ccccc2c1)[N+](=O)[O-]
inactive: dose: 75.0 mg/kg/injection, schedule: Q01DX001 (ip), vehicle: saline 108 % of control | dose: 150.0 mg/kg/injection, schedule: Q01DX001 (ip), vehicle: saline 100 % of control | dose: 300.0 mg/kg/injection, schedule: Q01DX001 (ip), vehicle: saline 105 % of control

CCC1(C)N=C(C)C(C)S1 (stereo unspecified)
inactive: [19] 111 % of control | [20] 100 % of control | [21] 100 % of control

CCCCn1ccnc1
inactive: dose: 12.5 mg/kg/injection, schedule: Q04DX003 (ip), vehicle: saline 105 % of control | dose: 25.0 mg/kg/injection, schedule: Q04DX003 (ip), vehicle: saline 103 % of control

COc1cc(-c2nc(-c3ccc(N=Cc4ccc(N(CCOS(C)(=O)=O)CCOS(C)(=O)=O)cc4C)cc3)cs2)cc(OC)c1OC
inactive: dose: 25.0 mg/kg/injection, schedule: Q04DX003 (ip), vehicle: saline with Tween-80 102 % of control | dose: 50.0 mg/kg/injection, schedule: Q04DX003 (ip), vehicle: saline with Tween-80 102 % of control | dose: 66.0 mg/kg/injection, schedule: Q04DX003 (ip), vehicle: saline with Tween-80 115 % of control and 120 % of control | dose: 150.0 mg/kg/injection, schedule: Q04DX003 (ip), vehicle: saline with Tween-80 96 % of control and 89 % of control | [20] 110 % of control

NCCS(=O)c1ccccc1 (stereo unspecified)
inactive: [2] 96 % of control | [4] 96 % of control | [5] 113 % of control
